Patent publication US8299111B2, “Compounds which modulate the CB2 receptor” (Boehringer Ingelheim International GmbH, priority 2006, dated 2012)

These compounds were tested against T1, human CB2R (Homo sapiens, UniProt P34972) (assay: CB2R mediated modulation of cAMP synthesis). Conditions: found through the use of the above described assays (binding and cAMP); CHO cells expressing human CB2R, forskolin-stimulated cAMP.
T1 construct: host or cells: CHO cells
T1 sequence (P34972 whole entry): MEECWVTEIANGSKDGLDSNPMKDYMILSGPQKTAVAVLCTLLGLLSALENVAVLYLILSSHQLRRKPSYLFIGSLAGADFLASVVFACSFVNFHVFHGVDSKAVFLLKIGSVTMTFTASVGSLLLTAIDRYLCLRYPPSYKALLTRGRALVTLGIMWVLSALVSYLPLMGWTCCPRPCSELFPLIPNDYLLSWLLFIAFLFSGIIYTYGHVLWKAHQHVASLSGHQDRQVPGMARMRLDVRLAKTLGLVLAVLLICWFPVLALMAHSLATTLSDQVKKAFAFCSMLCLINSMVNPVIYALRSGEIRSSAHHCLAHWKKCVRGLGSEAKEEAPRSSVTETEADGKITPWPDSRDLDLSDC
Type: cell-based
Procedure: B. CB2R Mediated Modulation of cAMP Synthesis:
CHO cells expressing human CB2R (Euroscreen) were plated at a density of 5000 cells per well in 384 well plates and incubated overnight at 37° C. After removing the media, the cells were treated with test compounds diluted in stimulation buffer containing 1 mM IBMX, 0.25% BSA and 10 uM Forskolin. The assay was incubated for 30 minutes at 37° C. Cells were lysed and the cAMP concentration was measured using DiscoverX -XS cAMP kit, following the manufacturer's protocol. In this setting, agonists will decrease forskolin induced production of cAMP while inverse agonists will further increase forskolin induced production of cAMP. EC50 of agonists were calculated as follows. The maximal amount of cAMP produced by forskolin compared to the level of cAMP inhibited by 1 uM CP55940 is defined as 100%. The EC50 value of each test compound was determined as the concentration at which 50% of the forskolin-stimulated cAMP synthesis was inhibited. Data was analyzed using a four-parameter logistic model. (Model 205 of XLfit 4.0).
`CC(C)(C)c1cc(NC(=O)C(C)(C)S(=O)(=O)c2ccc(Cl)cc2)ccn1` [N-(2-tert-butylpyridin-4-yl)-2-[(4-chlorophenyl)sulfonyl]-2-methylpropanamide] was tested, and the agonistic activity was “agonistic activity”. With `CC(C)(C)c1cccc(NC(=O)C(C)(C)S(=O)(=O)c2ccc(Cl)cc2)c1` [N-(3-tert-Butyl-phenyl)-2-(4-chloro-benzenesulfonyl)-2-methyl-propionamide] the agonistic activity was “agonistic activity”. For `CCC(C)c1cc(NC(=O)C(C)(C)S(=O)(=O)c2ccc(Cl)cc2)n(C)n1` (stereo not drawn) [N-(5-sec-Butyl-2-methyl-2H-pyrazol-3-yl)-2-(4-chloro-benzenesulfonyl)-2-methyl-propionamide], the agonistic activity was “agonistic activity”. `CC(C)(C(=O)Nc1ccccc1C(F)(F)F)S(=O)(=O)c1ccc(Cl)cc1` [2-(4-Chloro-benzenesulfonyl)-2-methyl-N-(2-trifluoromethyl-phenyl)-propionamide] was tested, and the agonistic activity was “agonistic activity”. For `CC(C)(C(=O)Nc1ccc(C(F)(F)F)cn1)S(=O)(=O)c1ccc(C#N)cc1F` [2-(4-Cyano-2-fluoro-benzenesulfonyl)-2-methyl-N-(5-trifluoromethyl-pyridin-2-yl)-propionamide], the agonistic activity was “agonistic activity”. `CC(C)(C(=O)Nc1nc(C2CCCCC2)cs1)S(=O)(=O)c1ccc(Cl)cc1F` [2-[(4-chloro-2-fluorophenyl)sulfonyl]-N-(4-cyclohexyl-1,3-thiazol-2-yl)-2-methylpropanamide] was tested, and the agonistic activity was “agonistic activity”. In the case of `CC(C)(C(=O)Nc1nc2ccccc2s1)S(=O)(=O)c1ccc(C(F)(F)F)nc1` [N-1,3-benzothiazol-2-yl-2-methyl-2-{[6-(trifluoromethyl)pyridin-3-yl]sulfonyl}propanamide], the agonistic activity is reported as “agonistic activity”. In the case of `CC(C)(C(=O)Nc1cccnc1)S(=O)(=O)c1ccc(Cl)cc1` [2-(4-Chloro-benzenesulfonyl)-2-methyl-N-pyridin-3-yl-propionamide], the agonistic activity is reported as “agonistic activity”. `CC(C)(C)c1csc(NC(=O)C(C)(C)S(=O)(=O)c2ccc(Cl)cc2Cl)n1` [N-(4-tert-Butyl-thiazol-2-yl)-2-(2,4-dichloro-benzenesulfonyl)-2-methyl-propionamide] was tested, and the agonistic activity was “agonistic activity”. `Cn1nc(C(C)(C)C)cc1NC(=O)C(C)(C)S(=O)(=O)c1ccc(Br)cc1` [2-(4-Bromo-benzenesulfonyl)-N-(5-tert-butyl-2-methyl-2H-pyrazol-3-yl)-2-methyl-propionamide] was tested, and the agonistic activity was “agonistic activity”. `Cc1ccc(S(=O)(=O)C(C)(C)C(=O)Nc2nc(C(F)(F)F)cs2)cc1` [2-Methyl-2-(toluene-4-sulfonyl)-N-(4-trifluoromethyl-thiazol-2-yl)-propionamide] was tested, and the agonistic activity was “agonistic activity”. In the case of `COc1ccc(S(=O)(=O)C(C)(C)C(=O)Nc2cc(C(C)(C)C)nn2C)cc1` [N-(5-tert-Butyl-2-methyl-2H-pyrazol-3-yl)-2-(4-methoxy-benzenesulfonyl)-2-methyl-propionamide], the agonistic activity is reported as “agonistic activity”. For `CCc1sc(NC(=O)C(C)(C)S(=O)(=O)c2ccc(C(F)(F)F)nc2)nc1-c1ccccc1` [N-(5-ethyl-4-phenyl-1,3-thiazol-2-yl)-2-methyl-2-{[6-(trifluoromethyl)pyridin-3-yl]sulfonyl}propanamide], the agonistic activity was “agonistic activity”. `CC(C)(C(=O)Nc1cccc(Cl)c1)S(=O)(=O)c1ccc(Cl)cc1` [2-(4-Chloro-benzenesulfonyl)-N-(3-chloro-phenyl)-2-methyl-propionamide] was tested, and the agonistic activity was “agonistic activity”. For `COc1ccc(S(=O)(=O)C(C)(C)C(=O)Nc2cc(-c3cccs3)nn2C)cc1` [2-(4-Methoxy-benzenesulfonyl)-2-methyl-N-(2-methyl-5-thiophen-2-yl-2H-pyrazol-3-yl)-propionamide], the agonistic activity was “agonistic activity”. With `CC(C)(C(=O)Nc1cccc(C(F)(F)F)n1)S(=O)(=O)c1ccc(Cl)nc1` [2-(6-Chloro-pyridine-3-sulfonyl)-2-methyl-N-(6-trifluoromethyl-pyridin-2-yl)-propionamide] the agonistic activity was “agonistic activity”. In the case of `O=C(Nc1cccc(C(F)(F)F)n1)C1(S(=O)(=O)c2ccc(C(F)(F)F)cc2)CCOCC1` [4-(4-Trifluoromethyl-benzenesulfonyl)-tetrahydro-pyran-4-carboxylic acid (6-trifluoromethyl-pyridin-2-yl)-amide], the agonistic activity is reported as “agonistic activity”. For `CC1(C)CCc2cc(S(=O)(=O)C(C)(C)C(=O)Nc3cc(C(C)(C)C)on3)ccc2O1` [N-(5-tert-Butyl-isoxazol-3-yl)-2-(2,2-dimethyl-chroman-6-sulfonyl)-2-methyl-propionamide], the agonistic activity was “agonistic activity”. In the case of `CC(C)(C)c1cc(NC(=O)C(C)(C)S(=O)(=O)c2ccc(F)cc2F)no1` [N-(5-tert-Butyl-isoxazol-3-yl)-2-(2,4-difluoro-benzenesulfonyl)-2-methyl-propionamide], the agonistic activity is reported as “agonistic activity”. In the case of `CC(C)(C(=O)Nc1nc(-c2ccc(Cl)cc2)cs1)S(=O)(=O)c1ccc(S(C)(=O)=O)cc1` [N-[4-(4-chlorophenyl)-1,3-thiazol-2-yl]-2-methyl-2-{[4-(methylsulfonyl)phenyl]sulfonyl}propanamide], the agonistic activity is reported as “agonistic activity”. In the case of `CC(C)(C(=O)Nc1nc2c(s1)CCCC2)S(=O)(=O)c1ccc(S(C)(=O)=O)cc1` [2-methyl-2-{[4-(methylsulfonyl)phenyl]sulfonyl}-N-(4,5,6,7-tetrahydro-1,3-benzothiazol-2-yl)propanamide], the agonistic activity is reported as “agonistic activity”. `CC(C)(C(=O)Nc1nc(-c2ccccc2)no1)S(=O)(=O)c1ccc(Cl)cc1` [2-(4-Chloro-benzenesulfonyl)-2-methyl-N-(3-phenyl-[1,2,4]oxadiazol-5-yl)-propionamide] was tested, and the agonistic activity was “agonistic activity”. In the case of `CC(C)(C)c1csc(NC(=O)C(C)(C)S(=O)(=O)c2ccc(Cl)cc2)n1` [N-(4-tert-Butyl-thiazol-2-yl)-2-(4-chloro-benzenesulfonyl)-2-methyl-propionamide], the agonistic activity is reported as “agonistic activity”. For `Cc1ccc(S(=O)(=O)C(C)(C)C(=O)Nc2nc(C)c(C(C)(C)C)s2)cc1` [N-(5-tert-Butyl-4-methyl-thiazol-2-yl)-2-methyl-2-(toluene-4-sulfonyl)-propionamide], the agonistic activity was “agonistic activity”. `CC(C)(C(=O)Nc1ccc(C(F)(F)F)cn1)S(=O)(=O)c1ccc(F)cc1F` [2-[(2,4-difluorophenyl)sulfonyl]-2-methyl-N-[5-(trifluoromethyl)pyridin-2-yl]propanamide] was tested, and the agonistic activity was “agonistic activity”. For `CC(C)(C)c1ccc(NC(=O)C(C)(C)S(=O)(=O)c2ccc(C(F)(F)F)nc2)cc1` [N-(4-tert-butylphenyl)-2-methyl-2-{[6-(trifluoromethyl)pyridin-3-yl]sulfonyl}propanamide], the agonistic activity was “agonistic activity”. In the case of `CC(C)(C)c1cc(NC(=O)C(C)(C)S(=O)(=O)c2ccc(Cl)c(Cl)c2)no1` [N-(5-tert-Butyl-isoxazol-3-yl)-2-(3,4-dichloro-benzenesulfonyl)-2-methyl-propionamide], the agonistic activity is reported as “agonistic activity”. For `CC(C)(C(=O)Nc1nc2ccccc2s1)S(=O)(=O)c1ccc(Cl)cc1F` [N-1,3-benzothiazol-2-yl-2-[(4-chloro-2-fluorophenyl)sulfonyl]-2-methylpropanamide], the agonistic activity was “agonistic activity”. In the case of `Cn1nc(-c2ccccc2)cc1NC(=O)C(C)(C)S(=O)(=O)c1ccc(S(C)(=O)=O)cc1` [2-methyl-N-(1-methyl-3-phenyl-1H-pyrazol-5-yl)-2-{[4-(methylsulfonyl)phenyl]sulfonyl}propanamide], the agonistic activity is reported as “agonistic activity”. In the case of `CC(C)(C(=O)Nc1nc(-c2ccc(Cl)cc2)cs1)S(=O)(=O)c1ccc(C(F)(F)F)nc1` [N-[4-(4-chlorophenyl)-1,3-thiazol-2-yl]-2-methyl-2-{[6-(trifluoromethyl)pyridin-3-yl]sulfonyl}propanamide], the agonistic activity is reported as “agonistic activity”. `Cc1c(-c2ccccc2)nn(C)c1NC(=O)C(C)(C)S(=O)(=O)c1ccc(Cl)cc1` [2-(4-Chloro-benzenesulfonyl)-N-(2,4-dimethyl-5-phenyl-2H-pyrazol-3-yl)-2-methyl-propionamide] was tested, and the agonistic activity was “agonistic activity”. `CC(C)(C(=O)Nc1cccc(C(F)(F)F)n1)S(=O)(=O)c1ccc(F)cc1` [2-(4-Fluoro-benzenesulfonyl)-2-methyl-N-(6-trifluoromethyl-pyridin-2-yl)-propionamide] was tested, and the agonistic activity was “agonistic activity”. With `CC(C)(C)c1cc(NC(=O)C(C)(C)S(=O)(=O)c2ccc(Cl)cc2F)on1` [N-(3-tert-Butyl-isoxazol-5-yl)-2-(4-chloro-2-fluoro-benzenesulfonyl)-2-methyl-propionamide] the agonistic activity was “agonistic activity”. `CC(C)(C(=O)Nc1ccc(Cl)cc1)S(=O)(=O)c1ccc(Cl)cc1` [2-(4-Chloro-benzenesulfonyl)-N-(4-chloro-phenyl)-2-methyl-propionamide] was tested, and the agonistic activity was “agonistic activity”. For `CC(C)(C)c1cc(NC(=O)C(C)(C)S(=O)(=O)c2cccs2)no1` [N-(5-tert-Butyl-isoxazol-3-yl)-2-methyl-2-(thiophene-2-sulfonyl)-propionamide], the agonistic activity was “agonistic activity”. `CC(C)(C(=O)Nc1cccc2ccccc12)S(=O)(=O)c1ccc(S(C)(=O)=O)cc1` [2-(4-Methanesulfonyl-benzenesulfonyl)-2-methyl-N-naphthalen-1-yl-propionamide] was tested, and the agonistic activity was “agonistic activity”.
